Patent publication US10144713B1, “Bis-cyclic guanidines as antibacterial agents” (UNIVERSITY OF SOUTH FLORIDA, priority 2017, dated 2018)

Legend:
[1] = test system: K. pneumoniae (ATCC 13383); experiment: MIC against K. pneumoniae; assay type: cell-based; details: Klebsiella pneumoniae, ATCC13383; Gram −; 16 h, 37° C.
Method: Minimum Inhibitory Concentrations (MICs) Against Bacteria.
The antimicrobial activity of the compounds was tested on the following six bacteria strains: K. pneumoniae (ATCC 13383), P. aeruginosa (ATCC27853), E. coli (ATCC 25922), vancomycin-resistant Enterococcus faecalis(ATCC 700802), Methicillin-resistant S. aureus (MRSA, ATCC 33591), Methicillin-resistant S. epidermidis (MRSE, RP62A). The procedures were followed as reported previously (Hancock et al., Immunobiology 2006, 211, 315-322). Briefly, a single colony of each bacterium was inoculated in 3 mL TSB medium and incubated overnight at 37° C. Then the bacteria culture was diluted at 1:100 and the bacteria were allowed to grow to mid-logarithmic phase. Next, 50 μL of 2-fold serial dilutions of compounds (0.1-25 μg/mL) were added the 96-well plate containing aliquots of 50 μL of bacteria suspension (1×10^6 CFU/mL) in each well. The mixture was incubated at 37° C. for 16 h, and their absorption at 600 nm wavelength was read on a Biotek Synergy HT microtiter plate reader. […] The experiments were repeated at least three times with duplicates each time. HC50 means the concentration causing 50% hemolysis.

[2] = test system: human red blood cells (hRBCs); experiment: Hemolytic assay; assay type: cell-based
Method: The freshly drawn, K2EDTA treated human red blood cells (hRBCs) were washed with 1×PBS buffer, and centrifuged at 3500 rpm for 10 min. The step was repeated until the supernatant became clear. The supernatant was removed, and the RBCs were diluted into 5% v/v suspension. 50 μL of the suspension was incubated with 50 μL of compounds of different concentrations at 37° C. for 1 h. The mixture was centrifuged at 3500 rpm for 10 min. Subsequently, to 30 μL of the supernatant 100 μL PBS was added, and the absorbance of the mixture at 540 nm was read on a Biotek Synergy HT plate reader. The positive control was 2% Triton X-100, and the negative control was 1×PBS alone. The hemolysis activity was calculated by the formula % hemolysis=(Abssample−AbsPBS)/(AbsTriton−AbsPBS)×100%. The experiment was repeated at least three times with duplicates each time.

S. aureus = experiment: Fluorescence microscopy (DAPI/PI) of bacterial membranes, S. aureus; assay type: cell-based; details: 2 h
Method: Fluorescence microscopy studies were conducted to evaluate the ability of compound 12 to compromise membranes of S. aureus (Gram-positive bacterium) and E. coli (Gram-negative bacterium). Fluorescent agent 4′,6-diamidino-2-phenylindole (DAPI) was used to stain membranes of bacterial cells with blue fluorescence regardless of cell viability, and the red fluorescence of propidium iodide (PI) due to the DNA intercalation was used to stain impaired membranes. After MRSA and E. Coli grew to mid-logarithmic phase, the compound 12 was incubated with the bacteria at 37° C. for 2 h. The mixture was then centrifuged at 5000 rpm for 15 min. The cell pellets were washed with the PBS buffer for three times, and incubated with PI ([…]) and DAPI (10 μg/mL) for 15 min sequentially on ice in the dark. The mixture was then centrifuged and the pellets were washed with the PBS buffer. Next, 10 μL of the samples were placed on chamber slides and observed under Zeiss Axio Image Zloptical microscope using 100× oil-immersion objective.

E. coli = experiment: Time-kill study; assay type: cell-based; details: 12.5 μg/mL
Method: The killing activity was monitored for the first 2 h. The concentrations for compound 11 were 2×MIC, 4×MIC, and 8×MIC, respectively.
Time-kill studies were conducted to investigate the bacterial killing kinetics of compounds 11 and 12 by using E. Coli. Briefly, the bacteria […] grew to mid-logarithmic phase in TSB medium, from which the suspension (10^6 CFU/ml) was made. The suspension was incubated with different concentrations of 11 or 12 for 10 min, 30 min, 1 h and 2 h respectively. The mixtures were diluted by 10^2 to 10^4 fold and spread on TSB agar plates. After incubation at 37° C. overnight, the colonies on the plates were counted and plotted against the incubation time. […] Cell colonies were counted in agar plates at 12.5, 25, and 50 μg/mL. Compound 11 at the concentration of 12.5 or 25 μg/mL completely removed all bacteria in 2 hours, and at 50 μg/mL it completely removed bacteria in 0.5 hour. Compound 12 killed E. Coli completely in 0.5 hour at the concentration of 12.5 μg/mL.

MRSA = experiment: Drug-resistance study, 14 passages, MRSA; assay type: cell-based, S. aureus; details: half-MIC exposure, 14 successive passages
Method: Bacterial resistance tests were conducted using compound 12. The compound was incubated with either MRSA or E. Coli in the well at the concentration of half-MIC (½ MIC, 10^6 CFU/ml) every day and tested for their activity through 14 successive passages.

E. coli biofilm = experiment: Biofilm formation inhibition (crystal violet), E. coli; assay type: cell-based; details: Escherichia coli
Method: Bacteria in biofilms are known to tolerate antibiotic treatment and are thus more difficult to eradicate than planktonic cells. Biofilms formed by MRSA and E. coli have frustrated the treatment of persistent bacterial infections. Compound 12 was evaluated for its ability to inhibit biofilm formation of MRSA and E. coli. Overnight grown bacteria were inoculated into fresh 10% of MHII broth at a ratio of 1:100. 100 μL of inoculated culture was incubated with appropriated amounts of compound 12 in wells of 96-well plate. The plate was incubated at 37° C. for overnight. Optical density of each well was recorded at the wavelength of 600 nm and then the biofilm biomass was recorded by the crystal violet method. Biofilm biomass was presented as CV OD/OD of growth. Relative biofilm biomass values were normalized by the biomass value of control (no addition of compound). Experiments were conducted in triplicate and the data were presented as mean±STDEV.

## CCCCCCN1C(=N)N(CC(=O)Nc2cccc(NC(=O)CN3C[C@H](Cc4ccccc4)N(CCCCCC)C3=N)c2)C[C@@H]1Cc1ccccc1 [Compound 12]
[1]
  MIC: 0.75 µg/mL
[2]
  selectivity, hemolytic activity against MIC values of MRSA: 1534 folds
S. aureus; 10 μg/mL, 37° C.
  membrane integrity of S. aureus (PI red fluorescence): disrupted
S. aureus; in the presence of compound
  aggregation of S. aureus: significant aggregation
E. coli
  time to completely remove all bacteria: 0.5 h
MRSA
  MIC after 14 passages: virtually constant
E. coli biofilm; 0.19 μg/mL
  inhibition at 0.19 µg/mL: 38%
E. coli biofilm; 0.39 μg/mL
  inhibition at 0.39 µg/mL: ~90%
